# In patent US20250144067A1, “PERSONALIZED STARVATION THERAPY FOR CANCER” (Faeth Therapeutics, Inc., priority 2021, published 2025):
# Structures can show the parent of a compound that is named as a salt. Where two headings read alike, the source gives them in different places. Square brackets hold non-standard residues; d marks the D form. Peptide text beside a SMILES is read from it. * marks the point of attachment. dPhe(4-NHCONH2) = NC(=O)Nc1ccc(C[C@@H](N)C(=O)O)cc1; Dihydroorotyl(S) = O=C1C[C@@H](C(=O)*)NC(=O)N1; dPhe(4-Cl) = N[C@H](Cc1ccc(Cl)cc1)C(=O)O; Phe(4-NH2) = Nc1ccc(C[C@H](N)C(=O)O)cc1; d2Nal = N[C@H](Cc1ccc2ccccc2c1)C(=O)O; Lys(iPr) = CC(C)NCCCC[C@H](N)C(=O)O; d3Pal = N[C@H](Cc1cccnc1)C(=O)O
# Legend:
# [1] = system: NCI-H292 lung cancer cells; assay: FDA drug screening, complete media vs cholesterol-free media with simvastatin (TABLE 2); type: cell-based, human
# [2] = system: NCI-H292 lung cancer cells; assay: FDA drug screening, complete media vs cholesterol-free media without statin (TABLE 1); type: cell-based, human
# [3] = Complete minus Cholesterol-free, […]
# [4] = NCI-H292 cells in cholesterol-free media without statin
# [5] = NCI-H292 cells in complete media
# [6] = NCI-H292 cells, drug in cholesterol-free media with simvastatin 0.04 μM
# [7] = NCI-H292 cells, drug in complete media
# [8] = complete media vs cholesterol-free media + simvastatin (0.04 μM), […]
# [9] = NCI-H292 cells, FDA drug library screen, cholesterol-free media with simvastatin 0.04 μM
# [10] = NCI-H292 cells, FDA drug library screen, complete media
# [11] = complete media vs cholesterol-free media + simvastatin (0.04 μM), >0 enhanced anti-cancer activity, about 0 neutral, <0 antagonist
# [12] = Complete minus Cholesterol-free, >0 enhanced anti-cancer activity, about 0 neutral, <0 antagonist
# [13] = NCI-H292 cells, cholesterol-free media without statin, FDA drug library screen
# [14] = NCI-H292 cells, complete media, FDA drug library screen
# [15] = NCI-H292 cells, FDA drug library screen, cholesterol-free media without statin
# [16] = NCI-H292 cells, cholesterol-free media with simvastatin 0.04 μM, cell growth value in FDA drug screen
# [17] = NCI-H292 cells, complete media, cell growth value in FDA drug screen
# [18] = complete media minus cholesterol-free media + simvastatin, >0 enhanced anti-cancer activity, about 0 neutral, <0 antagonist
# [19] = NCI-H292 cells, cholesterol-free media without statin
# [20] = complete vs cholesterol-free media, greater than 0 enhanced anti-cancer activity, about 0 neutral, below 0 antagonists
# [21] = Complete minus Cholesterol-free, greater than 0 enhanced anti-cancer activity, about 0 neutral, below 0 antagonists
# [22] = complete vs cholesterol-free media, >0 enhanced anti-cancer activity, about 0 neutral, <0 antagonist
# [23] = NCI-H292 cells, FDA library drug in cholesterol-free media with simvastatin 0.04 μM
# [24] = NCI-H292 cells, FDA library drug in complete media
compound,measurement,setting,value
CC(=O)N[C@H](Cc1ccc2ccccc2c1)C(=O)N[C@H](Cc1ccc(Cl)cc1)C(=O)N[C@H](Cc1cccnc1)C(=O)N[C@@H](CO)C(=O)N[C@@H](Cc1ccc(NC(=O)[C@@H]2CC(=O)NC(=O)N2)cc1)C(=O)N[C@H](Cc1ccc(NC(N)=O)cc1)C(=O)N[C@@H](CC(C)C)C(=O)N[C@@H](CCCCNC(C)C)C(=O)N1CCC[C@H]1C(=O)N[C@H](C)C(N)=O [Degarelix] (Ac-[d2Nal][dPhe(4-Cl)][d3Pal]S[Phe(4-NH2)](Dihydroorotyl(S))[dPhe(4-NHCONH2)]L[Lys(iPr)]P[dA]-NH2),Cholesterol-free media + simvastatin (0.04 μM),"[1]; NCI-H292 cells, cholesterol-free media with simvastatin 0.04 μM, FDA drug library screen (TABLE 2)",1.679
same,Complete Media,"[1]; NCI-H292 cells, complete media, FDA drug library screen (TABLE 2)",1.609
same,Difference,"[1]; complete media minus cholesterol-free media + simvastatin (0.04 μM), […]",−0.07
same,Difference,[2]; [3],−0.81
same,Cholesterol-free,[2]; [4],1.673
same,Complete,[2]; [5],0.859
Cn1c(=O)c2c(ncn2CC(O)CO)n(C)c1=O (stereo not drawn) [Diphylline],Cholesterol-free media + simvastatin (0.04 μM),[1]; [6],1.247
same,Complete Media,[1]; [7],1.05
same,Difference,[1]; [8],−0.20
same,Difference,[2]; [3],−0.69
same,Cholesterol-free,[2]; [4],1.559
same,Complete,[2]; [5],0.8732
CCCCC(CC)COC(=O)c1ccccc1O (stereo not drawn) [Octisalate],Cholesterol-free media + simvastatin (0.04 μM),[1]; [9],0.992
same,Complete Media,[1]; [10],0.8834
same,Difference,[1]; [11],−0.11
same,Difference,[2]; [12],−0.04
same,Cholesterol-free,[2]; [13],2.188
same,Complete,[2]; [14],2.15
CCCN(CCc1cccs1)[C@H]1CCc2c(O)cccc2C1 [Rotigotine (Hydrochloride)],Cholesterol-free media + simvastatin (0.04 μM),[1]; [9],0.8026
same,Complete Media,[1]; [10],0.6752
same,Difference,[1]; [11],−0.13
same,Difference,"[2]; Complete minus Cholesterol-free, greater than 0 enhanced anti-cancer activity, about 0 neutral, below 0 antagonist",−0.08
same,Cholesterol-free,[2]; [15],0.8788
same,Complete,[2]; [10],0.7943
CO[C@@H]1[C@H](N(C)C(=O)c2ccccc2)C[C@H]2O[C@]1(C)n1c3ccccc3c3c4c(c5c6ccccc6n2c5c31)C(=O)NC4 [Midostaurin],Cholesterol-free media + simvastatin (0.04 μM),[1]; [9],0.6712
same,Complete Media,[1]; [10],0.5312
same,Difference,[1]; [11],−0.14
same,Difference,[2]; [12],0.06
same,Cholesterol-free,[2]; [13],0.3336
same,Complete,[2]; [14],0.3958
Oseltamivir (phosphate),Cholesterol-free media + simvastatin (0.04 μM),"[1]; NCI-H292 cells, cholesterol-free media with simvastatin 0.04 μM, […]",0.8277
same,Complete Media,"[1]; NCI-H292 cells, complete media, […]",0.8627
same,Difference,"[1]; complete media minus cholesterol-free media + simvastatin, […]",0.04
same,Difference,[2]; [3],−0.16
same,Cholesterol-free,[2]; [15],1.28
same,Complete,[2]; [10],1.117
C[C@H](CCC(=O)O)[C@H]1CC[C@H]2[C@@H]3C(=O)C[C@@H]4CC(=O)CC[C@]4(C)[C@H]3CC(=O)[C@]12C [Dehydrocholic acid],Cholesterol-free media + simvastatin (0.04 μM),[1]; [16],0.8533
same,Complete Media,[1]; [17],0.9003
same,Difference,[1]; [18],0.05
same,Difference,[2]; [12],−0.25
same,Cholesterol-free,[2]; [19],1.151
same,Complete,"[2]; NCI-H292 cells, complete media",0.9012
Cc1ccc(C(=O)C(C)CN2CCCCC2)cc1 (stereo not drawn) [Tolperisone (hydrochloride)],Cholesterol-free media + simvastatin (0.04 μM),[1]; [16],0.9156
same,Complete Media,[1]; [17],0.9664
same,Difference,[1]; [18],0.05
same,Difference,[2]; [12],0.07
same,Cholesterol-free,[2]; [13],1.37
same,Complete,[2]; [14],1.436
CC(NCCc1ccc(O)cc1)C(O)c1ccc(O)cc1 (stereo not drawn) [Ritodrine (hydrochloride)],Cholesterol-free media + simvastatin (0.04 μM),[1]; [9],1.064
same,Complete Media,[1]; [10],0.9618
same,Difference,[1]; [11],−0.10
same,Cholesterol-free,[2]; [19],1.435
same,Complete,"[2]; NCI-H292 cells, complete media",0.972
same,Difference,[2]; [20],−0.46
CCc1oc2ccccc2c1C(=O)c1cc(Br)c(O)c(Br)c1 [Benzbromarone],Cholesterol-free media + simvastatin (0.04 μM),[1]; [16],0.9582
same,Complete Media,[1]; [17],0.9819
same,Difference,[1]; [18],0.02
same,Difference,[2]; [21],−0.92
same,Cholesterol-free,[2]; [4],1.902
same,Complete,[2]; [5],0.9837
CCOC(=O)OC(C)OC1=C(C(=O)Nc2ccccn2)N(C)S(=O)(=O)c2ccccc21 (stereo not drawn) [Ampiroxicam],Cholesterol-free media + simvastatin (0.04 μM),[1]; [16],1.311
same,Complete Media,[1]; [17],1.382
same,Difference,[1]; [18],0.07
same,Difference,[2]; [12],−0.03
same,Cholesterol-free,[2]; [13],0.9909
same,Complete,[2]; [14],0.9596
CNC(=O)c1c(C)oc2cc(Oc3ncnc4cc(OC)c(OC)cc34)ccc12 [Fruquintinib],Cholesterol-free media + simvastatin (0.04 μM),[1]; [9],1.198
same,Complete Media,[1]; [10],1.059
same,Difference,[1]; [11],−0.14
same,Difference,[2]; [12],0.02
same,Cholesterol-free,[2]; [13],0.9702
same,Complete,[2]; [14],0.994
N#Cc1ccc(C2CCCc3cncn32)cc1 (stereo not drawn) [Fadrozole],Cholesterol-free media + simvastatin (0.04 μM),[1],1.426
same,Complete Media,[1],1.038
same,Difference,[1],−0.39
same,Cholesterol-free,[2],0.5349
same,Complete,[2],1.016
same,Difference,[2],0.48
CC1CCC(C(C)C)C(O)C1 (racemic) [DL-Menthol],Cholesterol-free media + simvastatin (0.04 μM),[1]; [9],0.8922
same,Complete Media,[1]; [10],1.05
same,Difference,[1]; [18],0.16
same,Cholesterol-free,[2]; [19],1.299
same,Complete,"[2]; NCI-H292 cells, complete media",0.8907
same,Difference,[2]; [20],−0.41
O=C(Nc1cnn2ccc(N3CCC[C@@H]3c3cc(F)ccc3F)nc12)N1CC[C@H](O)C1 [Larotrectinib sulfate],Cholesterol-free media + simvastatin (0.04 μM),[1]; [6],1.922
same,Complete Media,[1]; [7],1.699
same,Difference,[1]; [11],−0.22
same,Cholesterol-free,[2]; [13],1.525
same,Complete,[2]; [14],1.739
same,Difference,[2]; [22],0.21
CCOc1cc2ncc(C#N)c(Nc3ccc(OCc4ccccn4)c(Cl)c3)c2cc1NC(=O)/C=C/CN(C)C [Neratinib],Cholesterol-free media + simvastatin (0.04 μM),[1],0.3387
same,Complete Media,[1],0.3007
same,Difference,[1],−0.04
same,Cholesterol-free,[2],0.06707
same,Complete,[2],0.1268
same,Difference,[2],0.06
Loxapine (succinate),Cholesterol-free media + simvastatin (0.04 μM),[1]; [16],1.274
same,Complete Media,[1]; [17],1.361
same,Difference,[1]; [18],0.09
same,Difference,[2]; [21],−0.72
same,Cholesterol-free,[2]; [4],1.602
same,Complete,[2]; [5],0.8776
C[C@H](CCC(=O)NCCS(=O)(=O)[O-])[C@H]1CC[C@H]2[C@@H]3[C@@H](O)C[C@@H]4C[C@H](O)CC[C@]4(C)[C@H]3CC[C@]12C.[Na+] [Taurochenodeoxycholic acid (sodium salt)],Cholesterol-free media + simvastatin (0.04 μM),[1]; [23],1.88
same,Complete Media,[1]; [24],1.535
same,Difference,[1]; [8],−0.35
same,Difference,[2]; [3],−0.22
same,Cholesterol-free,[2]; [19],0.9501
same,Complete,"[2]; NCI-H292 cells, complete media",0.7299
CS(=O)(=O)Nc1cc2occ(NC=O)c(=O)c2cc1Oc1ccccc1 [Iguratimod],Cholesterol-free media + simvastatin (0.04 μM),[1]; [23],1.717
same,Complete Media,[1]; [24],1.252
same,Difference,[1]; [11],−0.47
same,Cholesterol-free,[2]; [19],1.252
same,Complete,"[2]; NCI-H292 cells, complete media",0.9044
same,Difference,[2]; [20],−0.35
Cc1ccc(S(=O)(=O)NC(=O)NN2CC3CCCC3C2)cc1 (stereo not drawn) [Gliclazide],Cholesterol-free media + simvastatin (0.04 μM),[1]; [23],1.233
same,Complete Media,[1]; [24],0.9583
same,Difference,[1]; [11],−0.28
same,Difference,[2]; [12],0.04
same,Cholesterol-free,[2]; [13],1.079
same,Complete,[2]; [14],1.122
C[C@@H](Oc1cc(-c2cnn(C3CCNCC3)c2)cnc1N)c1c(Cl)ccc(F)c1Cl [Crizotinib (hydrochloride)],Cholesterol-free media + simvastatin (0.04 μM),[1]; [16],0.4168
same,Complete Media,[1]; [17],0.4474
same,Difference,[1]; [18],0.03
same,Cholesterol-free,[2]; [13],0.1813
same,Complete,[2]; [14],0.2796
same,Difference,[2]; [22],0.10
